Experiments:
[1] = Blood toxicology after the 5-day treatment; type: in vivo; conditions: 5 days i.p.; MN58b 2 mg/kg, JAS239 4 mg/kg
Method: (§1) A cohort of 15 mice was inoculated with MDA-MB-231 cells. When a volume of 300 μL was reached, tumors were scanned using MRS. Tumor volumes were measured using T2-weighted images. The animals were separated into treatment groups, and for 5 consecutive days each group was injected i.p. with 100 μL of DMSO/saline vehicle (n = 5), 2 mg/kg MN58b (n = 4), or 4 mg/kg JAS239 (n = 3). Initial cohort sizes were 5 per condition, but some animals had to be removed from the study because the treatment was so effective that we were unable to place voxels within post-treatment tumors that were too small. Follow-up MRI/MRS scanning was performed on day 7 to assess tumor growth inhibition and changes in metabolite levels. After imaging, blood was collected into heparin-coated tubes by cardiac puncture. Resected tumors were embedded in Optimum Cryo-Temperature (Sakura Finetek), flash-frozen in liquid nitrogen, and stored at –80 °C. Blood samples were submitted to the Ryan Veterinary Clinic Diagnostic labs for toxicology.
Supplementary Figure 6: Both ChoKα inhibitors show early signs of tumor growth inhibition and apoptosis, however JAS239 is better tolerated in animals. (A) Vehicle-treated tumors increased in size during the treatment regimen, whereas the tumor volumes of MN58b and JAS239 treated mice were unchanged. […]

MDA-MB-231 tumors [2] = test: Histopathology of treated tumors (H&E, Ki67, caspase-3); type: in vivo, mouse; conditions: 5 days i.p.; MN58b 2 mg/kg, JAS239 4 mg/kg; vs control
Method: as §1
Hematoxylin and eosin staining and immunohistochemistry was performed as described previously. Caspase-3 (R&D Systems AF835) and Ki67 (Abcam ab16667) antibody staining was performed on a Bond Max automated staining system (Leica Microsystems) using the Bond Intense R staining kit (Leica Microsystems DS9263). An Aperio Scan Scope OS (Aperio Technology) was used to scan slides, and the Image Scope nuclear staining algorithm (version 9; Aperio Technology) was used to quantify Ki67 and caspase-3 positive nuclei in representative regions of each slide.

MDA-MB-231 tumors [3] = test: Pharmacodynamic indicators of ChoKα inhibition (MRI/MRS); type: in vivo, mouse; conditions: 5 days i.p., MN58b 2 mg/kg, JAS239 4 mg/kg; for Change in tumor tCho compared to control (MRS) / Tumor volume between pre- and post-treatment scans (MRI): day 7; for PUFA resonances (measure of tumor apoptosis): trend not significant
Method: Mice bearing subcutaneous 4175-Luc+ or MB-MDA-231 tumors (∼300 μL) underwent pre-treatment MRS scans in a 9.4 T horizontal bore magnet equipped with 40 G/cm gradients interfaced to an Agilent Direct-Drive console (Agilent) operating vnmrj 2.3.C software. Multi-slice gradient and spin echo images were used for tumor localization. T2-weighted spin echo anatomical images were acquired using a spin echo multi-slice (SEMS) pulse sequence (TR = 1000 ms, TE = 10 ms, number of slices = 20, field of view = 20 × 20 mm^2, slice thickness = 1 mm, NT = 1, matrix size = 256 × 128) and used for voxel selection. A single voxel ^1H PRESS spectrum was acquired in a 3×3x3 mm^3 voxel (TR = 3000 ms, TE1 = 12.68 ms and TE2 = 10.01 ms, number of averages = 128, complex points = 4096, spectral width = 4000 Hz and acquisition time of 6 min 24 sec). Water suppression was achieved using the VAPOR sequence. An unsuppressed water spectrum was acquired (8 averages) as a chemical shift and concentration reference. One week following initiation of treatment, ^1H MR spectra were acquired again. Spectra were processed using Mnova Lite 5.2.5 software (Mestrelab Research). Free induction decays were processed by 10 Hz apodization followed by Fourier transformation. Spectra were phased and chemical shift and baseline correction performed prior to fitting of the water (4.7 ppm), tCho (3.2 ppm), PUFA (2.8 ppm), and lipid (1.3 ppm) resonances. The metabolite/water ratio was determined and the percent change was determined as [post-treatment ratio – pre-treatment ratio] *100%/pre-treatment ratio.
as §1

4175-Luc+ tumors = test: Tumor growth inhibition; type: in vivo, mouse; conditions: 5-day i.p. regimen from day 3 after inoculation; MN58b 2 mg/kg/day, JAS239 4 mg/kg/day
Method: All animal studies were approved by the Institutional Animal Care and Use Committee of the University of Pennsylvania. Six week old female athymic nude Foxn1^nu/nu mice (National Cancer Institute) were housed in a temperature-controlled environment with 12 h light/dark cycle. Anesthesia was induced using 2% isoflurane in oxygen for all experiments. For MCF7 tumors, mice were supplemented with 60-day release 0.36 mg 17β-estradiol tablets (Innovative Research of America) using a trochar in the nape of the neck. After 1 week, 4 × 10^6 cells in Matrigel (BD Biosciences) were inoculated into the left (CK+) and contralateral (EV) mammary fat pads. Subcutaneous xenografts, including those analyzed in MRI/MRS studies, were grown on the shoulder to allow for cloaking of the kidneys during optical imaging studies. Tumor growth was determined via caliper measurement of three orthogonal dimensions and volume calculated as length * width * height * π/6.
A cohort of 15 mice was inoculated with 4175-Luc+ tumors. Beginning 3 days post-inoculation, animals received a 100-μL i.p. injection of either control DMSO/saline, 2 mg/kg MN58b or 4 mg/kg JAS239 in DMSO/saline daily for 5 days. Tumor volumes were assessed by caliper measurement.

Compound	Toxicology [1]	Caspase-3 levels (MDA-MB-231 tumors [2])	Cell density (H&E) (MDA-MB-231 tumors [2])	Percentage of Ki67-positive cells (MDA-MB-231 tumors [2])	Change in tumor tCho compared to control (MRS) (MDA-MB-231 tumors [3])	Tumor volume between pre- and post-treatment scans (MRI) (MDA-MB-231 tumors [3])	PUFA resonances (measure of tumor apoptosis) (MDA-MB-231 tumors [3])	Tumor volume compared to control animals (4175-Luc+ tumors)
CC1(C)C(=C/C=C/C=C/C=C/C2=[N+](CCO)c3ccccc3C2(C)C)N(CCO)c2ccccc21 [JAS239]	No observable or measurable toxicity	higher caspase-3 levels	significant reduction in cell density	significantly reduced	reduce tCho to noise levels	static	increased	significantly smaller tumor volumes
MN58b [reference compound]	elevation of blood urea nitrogen	higher caspase-3 levels	significant reduction in cell density	significantly reduced	Significant reductions in tCho	static	increased	significantly smaller tumor volumes

From PMC5369982, “Near infrared fluorescent imaging of choline kinase alpha expression and inhibition in breast tumors” (Oncotarget, 2017)
